{"source": "paper PMC12445744", "about": "“Molecular docking to homology models of human and Trypanosoma brucei ERK8 that identified ortholog-specific inhibitors” (PLOS Neglected Tropical Diseases, 2025)", "target": "T1, TbERK8 (Trypanosoma brucei brucei, UniProt Q38B88)", "T1 sequence (Q38B88 1-442)": "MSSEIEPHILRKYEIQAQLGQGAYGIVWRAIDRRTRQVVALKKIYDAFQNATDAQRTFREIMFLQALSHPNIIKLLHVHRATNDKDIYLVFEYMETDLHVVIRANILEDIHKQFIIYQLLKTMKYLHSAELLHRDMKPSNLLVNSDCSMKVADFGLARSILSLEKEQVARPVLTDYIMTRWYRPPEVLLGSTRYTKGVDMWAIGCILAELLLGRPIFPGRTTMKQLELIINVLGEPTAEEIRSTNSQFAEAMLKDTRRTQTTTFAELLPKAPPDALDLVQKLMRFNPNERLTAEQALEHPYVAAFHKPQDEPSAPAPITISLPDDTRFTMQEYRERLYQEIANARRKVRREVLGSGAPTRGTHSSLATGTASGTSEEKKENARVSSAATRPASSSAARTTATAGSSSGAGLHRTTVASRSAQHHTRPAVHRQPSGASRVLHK", "assay": "Luciferase-based kinase inhibition assay (ATP luminescence), GST-tagged TbERK8 with MBP substrate", "format": "biochemical", "design": "raw luminescence, TbERK8: unit of the concentration uncertain", "settings": "for raw luminescence, TbERK8: replicate wells; for Luminescence Raw (Kinase-Glo): TbERK8", "note": "pIC50: −log10 of the molar value. Where “and” joins values, the source holds several entries; their conditions need not be identical. Equal entries are not always repeated.", "data": [{"smiles": "C[C@]12C=CC(=O)C=C1CC[C@@H]1[C@@H]2[C@@H](O)C[C@@]2(C)[C@H]1CC[C@]2(O)C(=O)CO", "note": "[Prednisolone]", "values": [{"measurement": "pIC50", "value": "< 2.00"}, {"measurement": "raw luminescence, TbERK8", "setting": "0.00015 (unit uncertain) compound, sheet ADP_ATP_glo081724 (3)", "value": "151.546 RLU and 115.356 RLU and 183.213 RLU"}, {"measurement": "raw luminescence, TbERK8", "setting": "0.00015 (unit uncertain) compound, sheet Kinase_glo 08142024 (2)", "value": "851.739 RLU and 832.717 RLU and 648.843 RLU"}, {"measurement": "raw luminescence, TbERK8", "setting": "0.00015 (unit uncertain) compound, sheet Kinase_glo_080924_IFPS (2)", "value": "2863.49 RLU and 2847.77 RLU and 2549.07 RLU"}, {"measurement": "raw luminescence, TbERK8", "setting": "0.00061 (unit uncertain) compound, sheet ADP_ATP_glo081724 (3)", "value": "126.666 RLU and 99.523 RLU and 185.475 RLU"}, {"measurement": "raw luminescence, TbERK8", "setting": "0.00061 (unit uncertain) compound, sheet Kinase_glo 08142024 (2)", "value": "699.567 RLU and 777.766 RLU and 826.377 RLU"}, {"measurement": "raw luminescence, TbERK8", "setting": "0.00061 (unit uncertain) compound, sheet Kinase_glo_080924_IFPS (2)", "value": "1033.1 RLU and 1001.66 RLU and 918.564 RLU"}, {"measurement": "raw luminescence, TbERK8", "setting": "0.00244 (unit uncertain) compound, sheet ADP_ATP_glo081724 (3)", "value": "151.546 RLU and 108.57 RLU and 214.879 RLU"}, {"measurement": "raw luminescence, TbERK8", "setting": "0.00244 (unit uncertain) compound, sheet Kinase_glo 08142024 (2)", "value": "716.475 RLU and 665.751 RLU and 646.73 RLU"}, {"measurement": "raw luminescence, TbERK8", "setting": "0.00244 (unit uncertain) compound, sheet Kinase_glo_080924_IFPS (2)", "value": "2143.15 RLU and 2092.68 RLU and 2029.79 RLU"}, {"measurement": "raw luminescence, TbERK8", "setting": "0.00977 (unit uncertain) compound, sheet ADP_ATP_glo081724 (3)", "value": "255.593 RLU and 147.022 RLU and 271.426 RLU"}, {"measurement": "raw luminescence, TbERK8", "setting": "0.00977 (unit uncertain) compound, sheet Kinase_glo 08142024 (2)", "value": "437.494 RLU and 490.331 RLU and 469.196 RLU"}, {"measurement": "raw luminescence, TbERK8", "setting": "0.00977 (unit uncertain) compound, sheet Kinase_glo_080924_IFPS (2)", "value": "2030.86 RLU and 2806.27 RLU and 2958.99 RLU"}, {"measurement": "raw luminescence, TbERK8", "setting": "0.03906 (unit uncertain) compound, sheet ADP_ATP_glo081724 (3)", "value": "165.118 RLU and 117.618 RLU and 199.046 RLU"}, {"measurement": "raw luminescence, TbERK8", "setting": "0.03906 (unit uncertain) compound, sheet Kinase_glo 08142024 (2)", "value": "667.865 RLU and 653.07 RLU and 765.085 RLU"}, {"measurement": "raw luminescence, TbERK8", "setting": "0.03906 (unit uncertain) compound, sheet Kinase_glo_080924_IFPS (2)", "value": "2637.83 RLU and 2496.34 RLU and 2622.11 RLU"}, {"measurement": "raw luminescence, TbERK8", "setting": "0.15625 (unit uncertain) compound, sheet ADP_ATP_glo081724 (3)", "value": "334.759 RLU and 251.069 RLU and 300.831 RLU"}, {"measurement": "raw luminescence, TbERK8", "setting": "0.15625 (unit uncertain) compound, sheet Kinase_glo 08142024 (2)", "value": "1037.73 RLU and 1041.95 RLU and 1113.81 RLU"}, {"measurement": "raw luminescence, TbERK8", "setting": "0.15625 (unit uncertain) compound, sheet Kinase_glo_080924_IFPS (2)", "value": "2180.42 RLU and 2133.34 RLU and 2264.78 RLU"}, {"measurement": "raw luminescence, TbERK8", "setting": "0.62500 (unit uncertain) compound, sheet ADP_ATP_glo081724 (3)", "value": "495.353 RLU and 366.425 RLU and 545.114 RLU"}, {"measurement": "raw luminescence, TbERK8", "setting": "0.62500 (unit uncertain) compound, sheet Kinase_glo 08142024 (2)", "value": "1265.98 RLU and 1276.55 RLU and 1342.07 RLU"}, {"measurement": "raw luminescence, TbERK8", "setting": "0.62500 (unit uncertain) compound, sheet Kinase_glo_080924_IFPS (2)", "value": "3642.09 RLU and 3777.07 RLU and 3651.3 RLU"}, {"measurement": "raw luminescence, TbERK8", "setting": "2.50000 (unit uncertain) compound, sheet ADP_ATP_glo081724 (3)", "value": "791.659 RLU and 658.208 RLU and 870.825 RLU"}, {"measurement": "raw luminescence, TbERK8", "setting": "2.50000 (unit uncertain) compound, sheet Kinase_glo 08142024 (2)", "value": "2855.33 RLU and 2339.64 RLU and 2348.09 RLU"}, {"measurement": "raw luminescence, TbERK8", "setting": "2.50000 (unit uncertain) compound, sheet Kinase_glo_080924_IFPS (2)", "value": "13901.1 RLU and 13588.9 RLU and 13357.6 RLU"}, {"measurement": "raw luminescence, TbERK8", "setting": "10.00000 (unit uncertain) compound, sheet ADP_ATP_glo081724 (3)", "value": "8500.16 RLU and 8653.97 RLU and 8624.56 RLU"}, {"measurement": "raw luminescence, TbERK8", "setting": "10.00000 (unit uncertain) compound, sheet Kinase_glo 08142024 (2)", "value": "38026 RLU and 38805.9 RLU and 42117.7 RLU"}, {"measurement": "raw luminescence, TbERK8", "setting": "10.00000 (unit uncertain) compound, sheet Kinase_glo_080924_IFPS (2), signal = ATP left", "value": "19789.8 RLU and 19980.7 RLU and 19481.5 RLU"}, {"measurement": "Luminescence Raw (Kinase-Glo)", "setting": "inhibitor 0.00976562 mM, sheet Sil_Pred3, read 3", "value": "32992.2 and 33121 and 33174.9"}, {"measurement": "Luminescence Raw (Kinase-Glo)", "setting": "inhibitor 0.0195312 mM, sheet Sil_Pred3, read 3", "value": "38593.5 and 41076.8 and 40952.6"}, {"measurement": "Luminescence Raw (Kinase-Glo)", "setting": "inhibitor 0.0390625 mM, sheet Sil_Pred3, read 3", "value": "46486.1 and 45877 and 46038.6"}, {"measurement": "Luminescence Raw (Kinase-Glo)", "setting": "inhibitor 0.078125 mM, sheet Sil_Pred3, read 3", "value": "44202 and 48636.7 and 49203.6"}, {"measurement": "Luminescence Raw (Kinase-Glo)", "setting": "inhibitor 0.15625 mM, sheet Sil_Pred3, read 3", "value": "45380.3 and 46230.7 and 46420.5"}, {"measurement": "Luminescence Raw (Kinase-Glo)", "setting": "inhibitor 0.3125 mM, sheet Sil_Pred3, read 3", "value": "39235.4 and 40486.4 and 39917.2"}, {"measurement": "Luminescence Raw (Kinase-Glo)", "setting": "inhibitor 0.625 mM, sheet Sil_Pred3, read 3", "value": "39298.7 and 39928.9 and 40873"}, {"measurement": "Luminescence Raw (Kinase-Glo)", "setting": "inhibitor 0.00976562, sheet Sil_Pred1, read 1", "value": "36007.1 and 35961.3 and 35122.3"}, {"measurement": "Luminescence Raw (Kinase-Glo)", "setting": "inhibitor 0.00976562, sheet Sil_Pred2, read 2", "value": "32848.9 and 34114.2 and 33997.9"}, {"measurement": "Luminescence Raw (Kinase-Glo)", "setting": "inhibitor 0.0195312, sheet Sil_Pred1, read 1", "value": "43841.6 and 45072.5 and 44815.8"}, {"measurement": "Luminescence Raw (Kinase-Glo)", "setting": "inhibitor 0.0195312, sheet Sil_Pred2, read 2", "value": "39947.1 and 42452 and 42749.7"}, {"measurement": "Luminescence Raw (Kinase-Glo)", "setting": "inhibitor 0.0390625, sheet Sil_Pred1, read 1", "value": "50695.1 and 50667.6 and 49805.8"}, {"measurement": "Luminescence Raw (Kinase-Glo)", "setting": "inhibitor 0.0390625, sheet Sil_Pred2, read 2", "value": "46810.4 and 47329.1 and 47238.4"}, {"measurement": "Luminescence Raw (Kinase-Glo)", "setting": "inhibitor 0.078125, sheet Sil_Pred1, read 1", "value": "49017.3 and 54222.7 and 54701.7"}, {"measurement": "Luminescence Raw (Kinase-Glo)", "setting": "inhibitor 0.078125, sheet Sil_Pred2, read 2", "value": "44868.4 and 49845.5 and 51285.2"}, {"measurement": "Luminescence Raw (Kinase-Glo)", "setting": "inhibitor 0.15625, sheet Sil_Pred1, read 1", "value": "51194.8 and 52235.4 and 51680.7"}, {"measurement": "Luminescence Raw (Kinase-Glo)", "setting": "inhibitor 0.15625, sheet Sil_Pred2, read 2", "value": "47366.3 and 47915.2 and 47922.2"}, {"measurement": "Luminescence Raw (Kinase-Glo)", "setting": "inhibitor 0.3125, sheet Sil_Pred1, read 1", "value": "44343.6 and 45716.6 and 43953.9"}, {"measurement": "Luminescence Raw (Kinase-Glo)", "setting": "inhibitor 0.3125, sheet Sil_Pred2, read 2", "value": "41235.6 and 41775.2 and 41631"}, {"measurement": "Luminescence Raw (Kinase-Glo)", "setting": "inhibitor 0.625, sheet Sil_Pred1, read 1", "value": "43960.8 and 44712.6 and 44414.7"}, {"measurement": "Luminescence Raw (Kinase-Glo)", "setting": "inhibitor 0.625, sheet Sil_Pred2, read 2", "value": "40144.8 and 41517 and 41924"}]}]}
